Measurements taken from patent EP3811940B1, “SUBSTITUTED 4,5'-BITHIAZOLES AS INHIBITORS OF THE HUMAN DNA TOPOISOMERASE II” (Kemijski Institut, priority 2019, dated 2021).
pIC50: −log10 of the molar value.

Tests used:
Format in all cases: biochemical
[1] = target: T1, human topo IIα (Homo sapiens, UniProt P11388); assay: ATP hydrolysis (ATPase) assay coupled to NADH oxidation
T1 construct: purchased Inspiralis (Norwich, UK)
Protocol: To investigate if our compounds can inhibit the ATP hydrolysis, catalysed by human topo IIα, first ATP hydrolysis assay was performed for compound 1. This assay is coupled to the oxidation of NADH, which was indicated by the decrease of optical density at 340 nm. Etoposide was used as a control compound.
Compounds were analyzed using a linked assay in which the ADP produced by the hydrolysis of ATP leads to conversion of NADH to NAD by a pyruvate kinase/lactate dehydrogenase mix. The disappearance of NADH is monitored at 340 nm. A mix of assay buffer (5 µL of 10X buffer per assay: final conc. 20 mM Tris-HCl, 5 mM magnesium acetate, 125 mM potassium acetate, 2 mM DTT, pH 7.9), linear pBR322 (1.5 µL of 1mg/mL per assay), phosphoenol pyruvate (0.5 µL of 80 mM per assay), pyruvate kinase/lactate dehydrogenase mix (0.75 µL per assay), NADH (1 µL of 20 mM per assay) and water (34.35 µL per assay) was made. 41.1 µL was aliquoted into the wells of a 384-well microtitre plate. […] 5 µL of the dilution buffer or human topo IIα (200 nM stock giving 12 nM final concentration) were then added and mixed. The change in OD340 was then measured in a plate reader over a period of about 10 minutes (called the prerun). 3.4 µL of 30 mM ATP was then added and the OD340 monitored for up to 30 minutes. Assays were performed at 37 °C. The final DMSO concentration in all the reactions was 1 % (v/v). Assays were performed at 3.9, 31.5, 125, and 500 µM final concentrations of the investigated compound 1. Compound were serially diluted in DMSO and added to the reaction before the addition of the enzyme. Control compound for was Etoposide. Determination if compound 1 from class of substituted 4,5'-bithiazoles inhibits ATPase activity of human topo II enzyme was performed in collaboration with Inspiralis.

[2] = target: T1, human topo IIα; assay: kDNA decatenation assay catalysed by human topo IIα; details: for % Decatenated Assay 1 / % Decatenated Assay 2: % of decatenated kDNA; for % Decatenated Average: average of two assays
Protocol: One U of human topo II (α or β) was incubated with 200 ng kDNA in a 30 µL reaction at 37°C for 30 minutes under the following conditions: 50 mM Tris HCl (pH 7.5), 125 mM NaCl, 10 mM MgCl2, 5 mM DTT, 0.5 mM EDTA, 0.1 mg/ml bovine serum albumin (BSA) and 1 mM ATP. Compounds 1 and 9 were serially diluted in DMSO and added to the reaction mixture before the addition of the enzyme. […] Each reaction was then stopped by the addition of 30 µL chloroform/iso-amyl alcohol ([…]) and 30 µL Stop Dye (40 % sucrose (w/v), 100 mM Tris.HCl (pH 7.5), 10 mM EDTA, 0.5 µg/mL bromophenol blue), before being loaded on a 1% TAE gel run at 85 V for 90 minutes. Assays were performed at 4 concentrations of ligand: 3.9, 31.5, 125 and 500 µM. The final DMSO concentration in all reactions was 1 % (v/v).
Bands were visualized by the ethidium bromide staining for 15 minutes and destaining for subsequent 10 minutes. Gels were scanned using the documentation equipment (GeneGenius, Syngene, Cambridge, UK) and inhibition levels were calculated from band data obtained with gel scanning software (GeneTools, Syngene, Cambridge,UK). Experiment was performed in duplicates for all compounds.

[3] = target: T1, human topo IIα; assay: HTS relaxation assay of human topo IIα; details: screening at 7.8, 31.5, 125 and 500 µM
Protocol: The 14 selected compounds from the class of substituted 4,5'-bithiazoles were experimentally assayed if they inhibit catalytic activity of human topo IIα using an established high-throughput screening (HTS) relaxation assay for human topo IIα [24].
The HTS assays primarily served to select compounds for further evaluation.
Plate was rehydrated using wash buffer (20 mM Tris-HCl (pH = 7.6), 137 mM NaCl, 0.005 % (w/v) BSA, 0.05 % (v/v) TWEEN-20®) and biotinylated oligonucleotide was immobilized onto the wells. Next, the excess oligonucleotide was washed off with wash buffer. Enzyme assay was carried out in reaction volume of 30 µL using 0.75 µg supercoiled plasmid pNO1 as a substrate and human topo IIα. Enzyme was diluted to the appropriate concentration with dilution buffer comprised of 50 mM Tris-Hcl (pH = 7.5), 100 mM NaCl, 1 mM DTT, 0.5 mM EDTA, 50 % (v/v) glycerol and 50 µg/mL albumin. Tested compounds (0.3 µL) were added as a stock solution in DMSO and final concentration of DMSO was 1 %, respectively. Reactions were incubated at 37 °C for 30 min, and TF buffer (50 mM NaOAc (pH = 5.0), 50 mM NaCl, 50 mM MgCl2) was added to the wells and incubated at room temperature for additional 30 min to allow the triplex biotin-oligonucleotid-plasmid formation. To eliminate the aggregation and non-specific inhibition a surfactant (TWEEN-20®) was added to the reaction mixture. Unbound plasmid was washed off with TF buffer and stained with the DNA-detection Dye in the T10 buffer (10 mM Tris-HCl (pH = 8) and 1 mM EDTA) was added. After mixing, fluorescence was read using Tecan fluorimeter (Excitation: 485 nm and Emission: 535 nm). Screening was performed at the inhibitor concentrations of 7.8, 31.5, 125 and 500 µM. IC50 values were calculated using GraphPad Prism 6.0 software and represent the concentrations of inhibitors where residual activity of the enzyme was 50 % [24].

T1 sequence (P11388 whole entry): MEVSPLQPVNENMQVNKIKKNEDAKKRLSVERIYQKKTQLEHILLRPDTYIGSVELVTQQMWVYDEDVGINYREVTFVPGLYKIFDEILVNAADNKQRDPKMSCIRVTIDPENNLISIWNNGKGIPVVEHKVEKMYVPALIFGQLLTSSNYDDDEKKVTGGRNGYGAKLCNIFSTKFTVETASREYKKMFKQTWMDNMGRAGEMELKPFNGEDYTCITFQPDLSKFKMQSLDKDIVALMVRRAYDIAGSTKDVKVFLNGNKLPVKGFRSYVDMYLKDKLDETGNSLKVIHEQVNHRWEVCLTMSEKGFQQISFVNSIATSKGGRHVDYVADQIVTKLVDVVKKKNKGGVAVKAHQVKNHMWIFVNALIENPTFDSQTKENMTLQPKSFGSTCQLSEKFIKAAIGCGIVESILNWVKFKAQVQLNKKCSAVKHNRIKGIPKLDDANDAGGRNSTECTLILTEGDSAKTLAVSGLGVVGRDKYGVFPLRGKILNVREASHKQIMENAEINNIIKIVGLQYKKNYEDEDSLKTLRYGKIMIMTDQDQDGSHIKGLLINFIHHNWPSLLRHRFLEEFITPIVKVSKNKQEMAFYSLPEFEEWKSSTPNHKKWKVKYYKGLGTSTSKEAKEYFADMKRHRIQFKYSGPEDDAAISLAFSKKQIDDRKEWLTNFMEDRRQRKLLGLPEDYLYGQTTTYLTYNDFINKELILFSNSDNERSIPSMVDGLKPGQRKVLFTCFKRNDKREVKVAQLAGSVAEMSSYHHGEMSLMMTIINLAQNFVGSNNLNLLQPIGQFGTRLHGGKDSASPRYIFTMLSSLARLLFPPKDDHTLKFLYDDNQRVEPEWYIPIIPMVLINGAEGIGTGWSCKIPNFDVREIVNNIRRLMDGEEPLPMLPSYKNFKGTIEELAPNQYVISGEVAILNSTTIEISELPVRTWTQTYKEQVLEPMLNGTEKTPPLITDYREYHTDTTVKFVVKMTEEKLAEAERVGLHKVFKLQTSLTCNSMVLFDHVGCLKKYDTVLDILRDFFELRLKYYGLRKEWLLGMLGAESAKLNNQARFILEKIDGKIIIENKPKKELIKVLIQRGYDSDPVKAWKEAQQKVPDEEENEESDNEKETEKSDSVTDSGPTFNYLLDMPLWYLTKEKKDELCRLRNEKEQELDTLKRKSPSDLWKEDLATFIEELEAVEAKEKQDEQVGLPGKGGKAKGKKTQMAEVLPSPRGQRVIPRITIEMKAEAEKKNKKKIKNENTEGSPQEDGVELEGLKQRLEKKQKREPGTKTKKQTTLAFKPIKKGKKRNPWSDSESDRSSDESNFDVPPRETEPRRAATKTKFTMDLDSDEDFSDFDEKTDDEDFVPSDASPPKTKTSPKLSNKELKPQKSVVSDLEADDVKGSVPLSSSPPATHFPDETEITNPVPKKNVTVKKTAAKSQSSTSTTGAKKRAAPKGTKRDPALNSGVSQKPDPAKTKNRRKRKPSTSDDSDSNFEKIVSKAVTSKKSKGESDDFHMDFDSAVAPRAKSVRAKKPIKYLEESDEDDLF

Row | SMILES | inhibition at 125 µM ([1]; first parallel) | inhibition at 125 µM ([1]; second parallel) | % Decatenated Assay 1 ([2]; 3.9 µM) | % Decatenated Assay 2 ([2]; 3.9 µM) | % Decatenated Average ([2]; 3.9 µM) | % Decatenated Assay 1 ([2]; 31.5 µM) | % Decatenated Assay 2 ([2]; 31.5 µM) | % Decatenated Average ([2]; 31.5 µM) | inhibition at 125 µM ([2]; 125 µM) | % Decatenated Assay 1 ([2]; 125 µM) | % Decatenated Assay 2 ([2]; 125 µM) | % Decatenated Average ([2]; 125 µM) | inhibition at 500 µM ([2]; 500 µM) | % Decatenated Assay 1 ([2]; 500 µM) | % Decatenated Assay 2 ([2]; 500 µM) | % Decatenated Average ([2]; 500 µM) | pIC50 [3] | inhibition at 31.5 µM ([2]; 31.5 µM) | % of inhibition of decatenation ([2]; 125 µM) | % of inhibition of decatenation ([2]; 500 µM)
1 | COc1cc([C@@H]2c3cc4c(cc3[C@@H](O[C@@H]3O[C@@H]5CO[C@@H](C)O[C@H]5[C@H](O)[C@H]3O)[C@H]3COC(=O)[C@H]23)OCO4)cc(OC)c1O [Etoposide, etoposide, reference compound] | 70% | 63% | – | – | – | – | – | – | – | – | – | – | – | – | – | – | – | – | – | –
2 | CC(=O)Nc1ccc(Nc2nc(-c3sc(NC(C)=O)nc3C)cs2)cc1 [Compound 9, N-(4-((2'-acetamido-4'-methyl-[4,5'-bithiazol]-2-yl)amino)phenyl)acetamide] | – | – | 98.7% | 99.2% | 98.9% | 99.4% | 97.9% | 98.7% | 11.9% | 89.5% | 86.7% | 88.1% | 67.3% | 34% | 31.3% | 32.7% | 4.22 | – | – | –
3 | Cc1nc(N)sc1-c1csc(Nc2ccc(C(F)(F)F)cc2)n1 [Compound 1, 4'-methyl-N2-(4-(trifluoromethyl)phenyl)-[4,5'-bithiazole]-2,2'-diamine] | 75% | 85% | 100% | 91% | 95.5% | 72.4% | 89.4% | 80.5% | – | 0% | 0% | 0% | – | 0% | 0% | 0% | 4.48 | 19.1% | full inhibition | full inhibition
